This is an account of results in patent US10100005B1 (Eclipse Therapeutics, LLC, priority 2017, dated 2018).

Assay type in all cases: physicochemical
Data set [1] can be described thus: Solubility testing in sodium phosphate buffer. To be noted: thermodynamic from solid; aqueous buffer, 0.02 molar dibasic sodium phosphate; sonicated, undissolved solid weighed. As to the method:
Compounds of Formulas I and II, prepared as described in the examples above, were tested to determine their solubility in a sodium phosphate buffer.
An aqueous buffer solution comprising 0.02 molar dibasic sodium phosphate was prepared. A weighted amount of solid was sonicated in the buffer, and then centrifuged to collect the undissolved material. The undissolved solid was dried in vacuuo and weighed. The mass of the undissolved portion was then used to calculate the mass that was successfully dissolved in the known volume of buffer.

Data set [2] can be described thus: In vitro testing: mesalamine (5-ASA) evolution from 5-glyoxyliminosalicylic acid in buffered saline, by HPLC. On the procedure: The vial was held at ambient temperature for 22.75 hours and sampled. […] No other peaks were present.
Without being bound to a particular theory, it is believed that for 5-glyoxyliminosalicylic acid, the presence of chloride greatly increases the rate of mesalamine evolution.

Data set [3] is described as follows: Solution stability in aqueous sodium phosphate buffer (visual, photographs). As to conditions: for appearance of solution after storage: 11 mg in 5 ml 0.02 molar dibasic sodium phosphate buffer, ambient temperature, 3 days. As to the method: An aqueous buffer solution comprising 0.02 molar dibasic sodium phosphate was prepared. An 11 mg sample of 5-glyoxyliminosalicylic acid (Formula Ia-i) was added to a vial containing 5 ml of the buffer solution. […] Both vials were stored at ambient temperature.

The nature of data set [4]: In vitro testing: decomposition to 5-ASA in phosphate buffer (pH 6.5), by infusion MS and LCMS. As to conditions: 10 mg in 10 ml phosphate buffer (pH 6.5) overnight. As to the method:
10 mg of 5-ethylglyoxyliminosalicylic acid (prepared as described in Example 4 above) was stored in 10 ml phosphate buffer (pH 6.5) overnight.

Turning to `CCOC(=O)/C=N\c1ccc(O)c(C(=O)OCC)c1` [Formula Ia-ii, ethyl 5-ethylglyoxyliminosalicylate], in data set [1], the solubility (as a rule, the concentration that dissolves in the medium under given conditions) is 0.13 mg/mL.

The compound `O=C(O)/C=N\c1ccc(O)c(C(=O)O)c1` [Formula Ia-i, 5-glyoxyliminosalicylic acid] displayed a solubility in data set [1] of 11 mg/mL. The “percentage of 5-aminosalicylic acid by HPLC” value in data set [2] (12 mg compound + 12 mg 5-aminosalicylic acid in 6 ml buffered saline, ambient temperature, 22.75 hours, no other peaks) was 87%. In addition, the mesalamine evolution entry in data set [2] (same experiment in the absence of saline) is listed as “very little mesalamine evolution”. Moreover, the “appearance of solution after storage” value in data set [3] was “still clear and lightly colored”. Besides, the “storage stability relative to mesalazine” value in data set [3] (dissolved in aqueous sodium phosphate buffer, 3 days ambient) is “significantly greater degree of storage stability than mesalazine”.

With `O=C(O)/C=N/c1ccc(C(=O)O)c(O)c1` [Formula Ib-i, 4-glyoxyliminosalicylic acid], the solubility in data set [1] came out at 17.3 mg/mL.

With `COc1cc(/C=N\c2ccc(C(=O)O)c(O)c2)ccc1O` [Formula IIb-i, 4-vanilliniminosalicylic acid], in data set [1], the solubility amounted to 7.35 mg/mL.

For the compound `Nc1ccc(O)c(C(=O)O)c1` [Mesalazine, 5-aminosalicylic acid, reference compound], the “appearance of solution after storage” value in data set [3] was “turned a dark brown color, and a significant amount of brown solid material precipitated”.

`CCOC(=O)C=Nc1ccc(C(=O)O)c(O)c1` [Formula Ib-ii, 4-ethylgloxyliminosalicylic acid]: in data set [1], the solubility is 10.2 mg/mL.

For `COc1cc(/C=N\c2ccc(O)c(C(=O)O)c2)ccc1O` [Formula IIa-i, 5-vanilliniminosalicylic acid], in data set [1], the solubility stood at 3.45 mg/mL.

In the case of `CCOC(=O)/C=N\c1ccc(O)c(C(=O)O)c1` [Formula Ia-iii, 5-ethylglyoxyliminosalicylic acid], in data set [1], the solubility is 12 mg/mL. In addition, in data set [4], the “decomposed to 5-ASA (LCMS, single ion monitoring)” value is given as approximately 90% and the “decomposition to release 5-ASA (infusion MS)” value is reported as “partially decomposed”.
